Assay results from US11246873B2, “Directed differentiation of oligodendrocyte precursor cells to a myelinating cell fate” (The Scripps Research Institute, priority 2011, dated 2022).
“Also recorded” adds a separate entry of the source.

Tests used:
[1] = system: rat optic nerve derived OPCs; assay: High content imaging assay of OPC differentiation (MBP immunostaining, OPERA); format: cell-based; conditions: OPCs in differentiation medium (2 ng/ml PDGF), 6 days
Description: FIG. 1A-C. […] The calculated EC50 values were determined using appropriate Graphpad Prism 5.0 curve fitting software. […] OPCs were plated in 384 well plates at 1000 cells per well in OPC media containing basal PDGF-αα (2 ng/mL) and treated with serial dilutions of compounds. Following six days of compound treatment, cells were fixed and subjected to immunofluorescence analysis using anti-myelin basic protein (MBP) antibody. Image acquisition and quantification of MBP staining was performed using the OPERA imaging system.
FIG. 11A-B. Screen to identify inducers of OPC differentiation. (A) OPCs were maintained as proliferating A2B5-positive cells under basal growth conditions (Neurobasal medium, B27 supplement without Vitamin A, non-essential amino acids, L-Glutamine, 30 ng/ml PDGF). OPCs were plated in basal differentiation media (Neurobasal medium, B27 supplement without Vitamin A, non-essential amino acids, L-Glutamine, 2 ng/ml PDGF), treated with DMSO (<0.1%) or thyroid hormone (1 uM), fixed after 6 days in culture, and stained using antibodies for CNP, O4, or MBP. […] (B) Screen strategy using A2B5 positive OPCs cultured under basal differentiation conditions and treated with compounds for 6 days to identify small molecules that induce the differentiation of OPCs to mature, MBP expressing oligodendrocytes.
FIG. 12A-B. Primary hit confirmation. (A) Dose response assay used to confirm primary screening hits and determine potency (EC50). (EC50) is defined as the concentration that results in a half maximal increase in the percentage of total cells that express MBP as detected by immunostaining. […] Cells were fixed and immunostained using antibodies for MBP. Error bars represent standard deviations from 3 replicate experiments. […]
FIG. 21. […] OPCs were plated in differentiation medium (2 ng/ml PDGF) and treated with various concentrations of compounds for 6 days. Cells were fixed and immunostained for MBP.
A large-scale small molecule screen was conducted to identify small molecules that promote the differentiation of oligodendrocyte precursor cells (OPCs) to a mature myelinating fate. High content imaging was used to detect in-well differentiation of rat optic nerve derived OPCs. Rat optic nerve derived OPCs were expanded en masse in OPC media containing 30 ng/mL PDGFαα. To screen for small molecule inducers of OPC differentiation, OPCs (cultured for fewer than 15 passages) were plated in poly-D-lysine coated 384 well culture plates in OPC Media containing 2 ng/mL PDGFαα and immediately treated with compounds at a final concentration of 6 μM (0.6% DMSO). Compound treated cells were incubated at 37° C., 5% CO2 for 6 days. At the end of 6 days, cells were fixed in 4% paraformaldehyde and subjected to immunofluorescence analysis. Anti-Myelin Basic Protein monoclonal antibody (a.a. 129-138, clone 1 monoclonal antibody, Millipore) (1:1000 dilution) in blocking buffere solution (3% BSA, 0.3% Triton X-100 in PBS) was added to fixed and washed cells and incubated at 4° C. overnight.

PLP induced EAE mice = system: PLP induced EAE mice
Description: (A-E) SJL mice were immunized with proteolipid peptide (PLP) and pertussis toxin and monitored daily with scoring on the standard clinical EAE scale (0-5). Compounds were administered daily for the duration of the study in saline at 10 mg/kg via intra-peritoneal injection (0.1 ml), starting on the day of the appearance of clinical EAE symptoms (day 10). […] Mean clinical EAE score and standard error of mean (SEM) are shown for each study group.
FIG. 25. […] EAE was induced in mice using PLP and pertussis toxin. […] Prophylactic dosing is defined as administration of compound commenced on the day of PLP injection. Error bars indicate standard deviation of the mean within each group of 8 mice.
(A-F) EAE was induced in mice using PLP and pertussis toxin. […] Error bars indicate standard deviation of the mean within each group of 8 mice.
(A-F) EAE was induced in mice by injecting PLP in complete Freund's adjuvant (CFA) and pertussis toxin, and the animals were scored daily for clinical severity of disease on a scale of 0-5. […] Error bars indicate standard deviation of the mean within each group of 8-10 mice.
10 week old SJL mice were immunized with PLP emulsion and pertusis toxin to induce EAE. […] Compounds were administered daily via intraperitoneal injection of 100 ul in sterile saline at 10 mg/kg alone or in combination with mycophenolate motefil in sterile saline at pH 5 at 20 mg/kg. Compound administration was initiated at disease onset (day 10) while mycophenolate motefil administration was initiated on Day 14. The mice were scored daily on a standard EAE scale of 0-5.
This model is most commonly used to evaluate the potential efficacy of immunomodulatory agents, but can also be used to determine the effectiveness of promyelinating agents that function by enhancing OPC differentiation (M. Fernandez et al., Proc Natl Acad Sci U.S.A, 101, 16363 (2004); X. Lee et al., J Neurosci, 27, 220 (2007); reviewed in R. J. Franklin, C. Ffrench-Constant, Nat Rev Neurosci, 9, 839 (2008)). […] We next evaluated efficacy when the drug is dosed therapeutically, by starting daily injections at the first sign of disease onset.
For the treatment of MS, an OPC differentiation inducing drug would most likely be introduced clinically as part of a combination therapy with an immunosuppressive drug. […] The former reduces T-cell proliferation and alters cytokine expression (A. Noronha, A. Toscas, M. A. Jensen, J Neuroimmunol, 46, 145 (1993); A. Noronha, A. Toscas, M. A. Jensen, Ann Neurol, 27, 207 (1990)), while the latter is an S1P agonist that regulates T-cell trafficking (V. Brinkmann et al., J Biol Chem, 277, 21453 (2002); V. Brinkmann et al., Nat Rev Drug Discov, 9, 883 (2010)).

OPCs = assay: Immunofluorescence analysis of mature oligodendrocyte markers (MBP, MOG, CNP, GalC, O1, O4); format: cell-based, rat; conditions: OPCs treated 6 days
Excerpt: FIG. 3. Immunofluorescence analysis of compound treated OPCs using mature oligodendrocyte specific markers. Immunofluorescence staining using specific antibodies for MBP, MOG, and 2′,3′-cyclic nucleotide 3′ phosphodiesterase (CNP). Nuclei were identified using DAPI.
FIG. 4. Immunofluorescence analysis of compound treated OPCs using mature oligodendrocyte specific markers. Immunofluorescence staining using specific antibodies for galactocereberoside (GalC), oligodendrocyte marker O1 (O1) and oligodendrocyte marker O4 (O4). Nuclei were identified using DAPI.
FIG. 14. Compound treatment induces the differentiation of OPCs to mature oligodendrocytes. […] Cells were fixed and immunostained for MBP, MOG, CNP, GalC, O1, or O4.
Immunofluorescence was also used to confirm that the hits were able to induce oligodendrocyte maturation.

SMILES | induction of OPC differentiation (MBP staining) [1] | also measured
CCCOC(C(=O)OC1CCN(C)CC1)(c1ccccc1)c1ccccc1 [propiverine] | induced OPC differentiation in a dose dependent manner; also recorded: induced differentiation of OPCs in a dose dependent manner | –
CC(C)[N+]1(C)[C@@H]2CC[C@H]1C[C@@H](OC(=O)C(CO)c1ccccc1)C2 (stereo partly shown) [ipratropium] | induce OPC differentiation; also recorded: induced OPC differentiation in a dose dependent manner; also recorded: induced differentiation of OPCs in a dose dependent manner | –
CCN(CC)CC#CCOC(=O)C(O)(c1ccccc1)C1CCCCC1 (stereo not shown) [oxybutynin] | induced OPC differentiation in a dose dependent manner; also recorded: induced differentiation of OPCs in a dose dependent manner | –
CN1[C@@H]2CC[C@H]1C[C@@H](OC(=O)C(CO)c1ccccc1)C2 (stereo partly shown) [atropine] | induce OPC differentiation; also recorded: induced OPC differentiation in a dose dependent manner; also recorded: induced differentiation of OPCs in a dose dependent manner | –
CN1[C@@H]2C[C@@H](OC(=O)[C@H](CO)c3ccccc3)C[C@H]1[C@@H]1O[C@@H]12 [scopolamine] | induced OPC differentiation in a dose dependent manner; also recorded: induced differentiation of OPCs in a dose dependent manner | –
CC(C)(C)NCC(O)c1ccc(O)c(CO)c1 (stereo not shown) [salbutamol] | – | clinical severity versus vehicle, dosing after disease onset (therapeutic mode) (PLP induced EAE mice; compounds 10 mg/kg i.p. daily from first EAE symptoms, mycophenolate 20 mg/kg from day 14): significantly decreased clinical severity in the relapse phase
CCCCCCCCc1ccc(CCC(N)(CO)CO)cc1 [FTY720, fingolimod] | – | maximal observed tolerated dose (PLP induced EAE mice; EAE mice): ~1 mg/kg
N[C@@H](Cc1cc(I)c(Oc2ccc(O)c(I)c2)c(I)c1)C(=O)O [thyroid hormone, triiodothryonine] | induces the differentiation of OPCs into mature oligodendrocytes that express MBP | induction of OPC differentiation (MBP staining) ([1]; listed as T3): results in the differentiation of OPCs to MBP positive oligodendrocytes; markers of mature myelinating oligodendrocytes (MBP, MOG, CNP, GalC, O1, O4) by immunofluorescence (OPCs): expression of mature oligodendrocyte markers
